System: NS-SV-AC cells
Assay: TNF-α-induced cytotoxicity, MTT assay
Format: cell-based, human
Settings: cells exposed to TNF-α and EGCG in presence of inhibitor
Protocol: TNF-α cyotoxicity: NS-SV-AC cells (0.5×10<4> cells/well) were seeded in a 96-well microplate and either treated for 24 hr with EGCC as described above (or not treated in the control), in the presence of 100 ng/ml TNFα and 10 μg/ml cyclohexamide. After the treatments, viability was determined by the MTT assay. The cells in each well were washed with 200 μl of phosphate-buffered saline (PBS) and incubated with 100 μl of 2% (w/v) MTT in a solution of 0.05 M Tris-HCl (pH 7.6), 0.5 mM MgCl2, 2.5 mM CoCl2 and 0.25 M disodium succinate at 37° C. for 30 min. Cells were fixed by the addition of 100 μl of 4% (v/v) formalin in 0.2 M Tris-HCl (pH 7.6), and after a 5 min incubation at room temperature liquid was removed and the wells were allowed to dry. Each well was rinsed with 200 μl water and cells were solubilized by the addition of 100 μl of 6.35% (v/v) 0.1 N NaOH in DMSO. The colored formazan product was measured by a Thermo MAX micro plate reader (Molecular Devices Corp. Sunnyvale, Calif.) at a wavelength of 562 nm.
We examined the effects of EGCG on TNF-α-induced cytotoxicity of the human salivary gland acinar cell line NS-SV-AC using the MTT assay.
To examine the role of activation of the p38 signaling pathway in reducing TNF-α-induced cytotoxicity, cells were exposed to TNF-[alpha] and EGCG in the presence of either the p38 MAPK inhibitor SB203580 or the MEK inhibitor PD98059.

SMILES	effect on protection by EGCG against TNF-α-induced loss of cell viability
COc1cccc(-c2cc(=O)c3ccccc3o2)c1N [PD98059]	significantly reduced the protective effect of EGCG
C[S+]([O-])c1ccc(-c2nc(-c3ccncc3)c(-c3ccc(F)cc3)[nH]2)cc1 (centres unmarked) [SB203580]	significantly reduced the protective effect of EGCG
